In patent publication EP0908457B1, “3-(1,2-benzisothiazol- and isoxazol-5-Y1)-2,4(1H,3H)-pyrimidinedione or thione and 3-(1,2-benzisothiazol- and isoxazol-5-y1)-4(3H)-pyrimidinone or thione herbicidal agents” (BASF AKTIENGESELLSCHAFT, priority 1997, dated 1999):

How the values were obtained:
[1] = system: Echinochloa oryzoides (Ard.) Fritsch.; assay: Preemergence weed control under flooded paddy conditions, ECHORC (Watergrass (Calif.)); type: in vivo; details: flooded paddy; for herbicidal effect rating, ECHORC: meaning of each grade not given here
[2] = system: Cyperus serotinus, Rottb.; assay: Preemergence weed control under flooded paddy conditions, CYPSE (Flatsedge); type: in vivo; for herbicidal effect rating, CYPSE: meaning of each grade not given here
Cyperus iria = assay: Preemergence weed control under flooded paddy conditions, CYPIR (Rice Flatsedge); type: in vivo; details: flooded paddy; for herbicidal effect rating, CYPIR: meaning of each grade not given here
[3] = system: Monochoria vaginalis, Presl.; assay: Preemergence weed control under flooded paddy conditions, MOOVA (Monochoria); type: in vivo; details: flooded paddy; for herbicidal effect rating, MOOVA: meaning of each grade not given here
[4] = system: Oryza sativa, (L.) Tebonnet; assay: Rice tolerance to post-transplant applications under flooded paddy conditions (Example 187), ORYSAT (Rice, Tebonnet); details: for herbicidal effect rating, ORYSAT (rice tolerance) / ORYSAT herbicidal effect rating: rated three to four weeks after treatment; for herbicidal effect rating ORYSAT: rated 3-4 weeks after treatment; for herbicidal effect rating ORYSAT: meaning of each grade not given here
Sagittaria pygmaea, L. = assay: Preemergence weed control under flooded paddy conditions, SAGPY (Arrowhead (Pygmaea)); type: in vivo; details: flooded paddy; for herbicidal effect rating, SAGPY: meaning of each grade not given here
[5] = 0.0313 kg/ha, preemergence weeds, rated three to four weeks after treatment
[6] = 0.0625 kg/ha, preemergence weeds, rated three to four weeks after treatment
[7] = 0.1250 kg/ha, preemergence weeds, rated three to four weeks after treatment
[8] = 0.2500 kg/ha, preemergence weeds, rated three to four weeks after treatment
[9] = Rate 0.0313 kg/ha, preemergence, rated three to four weeks after treatment
[10] = Rate 0.0625 kg/ha, preemergence, rated three to four weeks after treatment
[11] = Rate 0.1250 kg/ha, preemergence, rated three to four weeks after treatment
[12] = Rate 0.2500 kg/ha, preemergence, rated three to four weeks after treatment
[13] = 0.0313 kg/ha, preemergence, rated three to four weeks after treatment
[14] = 0.0625 kg/ha, preemergence, rated three to four weeks after treatment
[15] = 0.1250 kg/ha, preemergence, rated three to four weeks after treatment
[16] = 0.2500 kg/ha, preemergence, rated three to four weeks after treatment
[17] = Rate 0.0320 kg/ha, preemergence, rated 3-4 weeks after treatment
[18] = Rate 0.0620 kg/ha, preemergence, rated 3-4 weeks after treatment
[19] = Rate 0.1250 kg/ha, preemergence, rated 3-4 weeks after treatment
[20] = Rate 0.2500 kg/ha, preemergence, rated 3-4 weeks after treatment
[21] = Rate 0.5000 kg/ha, preemergence, rated 3-4 weeks after treatment

For `COCC(C)OC(=O)COc1ccc(C)cc1-c1nsc2ccc(-n3c(=O)cc(C(F)(F)F)n(C)c3=O)cc12` (racemic) [Example 192, 1-Methyl-2-methoxyethyl {{2-{5-[3,6-dihydro-3-methyl-2,6-dioxo-4-(trifluoromethyl)-1(2H)-pyrimidinyl]-1,2-benzisothiazol-3-yl}-p-tolyl}oxy}acetate, DL-], the “herbicidal effect rating, ECHORC” value [1, 5] was 1.0, the “herbicidal effect rating, ECHORC” value [1, 6] was 4.0 and the “herbicidal effect rating, ECHORC” value [1, 7] was 9.0. The “herbicidal effect rating, ECHORC” value [1, 8] was 9.0, the “herbicidal effect rating, CYPSE” value [2, 5] was 0.0 and the “herbicidal effect rating, CYPSE” value [2, 6] was 0.0. The “herbicidal effect rating, CYPSE” value [2, 7] was 0.0, the “herbicidal effect rating, CYPIR” value (Cyperus iria; [5]) was 0.0 and the “herbicidal effect rating, CYPIR” value (Cyperus iria; [6]) was 0.0. For the same molecule, the “herbicidal effect rating, CYPIR” value (Cyperus iria; [7]) was 2.0, the “herbicidal effect rating, CYPIR” value (Cyperus iria; [8]) was 7.0 and the “herbicidal effect rating, MOOVA” value [3, 5] was 9.0. For the same molecule, the “herbicidal effect rating, MOOVA” value [3, 6] was 9.0, the “herbicidal effect rating, MOOVA” value [3, 7] was 9.0 and the “herbicidal effect rating, MOOVA” value [3, 8] was 9.0. The “herbicidal effect rating, ORYSAT (rice tolerance)” value (from here on “herbicidal effect rating, ORYSAT”) ([4]; 0.0313 kg/ha) was 1.0, the “herbicidal effect rating, ORYSAT” value ([4]; 0.0625 kg/ha) was 2.0 and the “herbicidal effect rating, ORYSAT” value ([4]; 0.1250 kg/ha) was 3.0. For the same molecule, the “herbicidal effect rating, ORYSAT” value ([4]; 0.2500 kg/ha) was 4.0, the “herbicidal effect rating, SAGPY” value (Sagittaria pygmaea, L.; [5]) was 0.0 and the “herbicidal effect rating, SAGPY” value (Sagittaria pygmaea, L.; [6]) was 0.0. For the same molecule, the “herbicidal effect rating, SAGPY” value (Sagittaria pygmaea, L.; [7]) was 2.0 and the “herbicidal effect rating, SAGPY” value (Sagittaria pygmaea, L.; [8]) was 9.0.
For `C=CCOc1nc(C(F)(F)F)cc(=O)n1-c1ccc2snc(-c3cc(C)ccc3OC)c2c1` [Example 245, 2-(Allyloxy)-3-[3-(6-methoxy-m-tolyl)-1,2-benzisothiazol-5-yl]-6-(trifluoromethyl)-4(3H)-pyrimidinone], the “ECHORC herbicidal effect rating” value [1, 9] was 0.0, the “ECHORC herbicidal effect rating” value [1, 10] was 0.0 and the “ECHORC herbicidal effect rating” value [1, 11] was 0.0. For the same molecule, the “ECHORC herbicidal effect rating” value [1, 12] was 0.0, the “CYPSE herbicidal effect rating” value [2, 9] was 0.0 and the “CYPSE herbicidal effect rating” value [2, 10] was 0.0. For the same molecule, the “CYPSE herbicidal effect rating” value [2, 11] was 0.0, the “CYPSE herbicidal effect rating” value [2, 12] was 0.0 and the “CYPIR herbicidal effect rating” value (Cyperus iria; [9]) was 0.0. For the same molecule, the “CYPIR herbicidal effect rating” value (Cyperus iria; [10]) was 0.0, the “CYPIR herbicidal effect rating” value (Cyperus iria; [11]) was 0.0 and the “CYPIR herbicidal effect rating” value (Cyperus iria; [12]) was 0.0. The “MOOVA herbicidal effect rating” value [3, 9] was 0.0, the “MOOVA herbicidal effect rating” value [3, 10] was 0.0 and the “MOOVA herbicidal effect rating” value [3, 11] was 0.0. For the same molecule, the “MOOVA herbicidal effect rating” value [3, 12] was 0.0, the “ORYSAT herbicidal effect rating” value ([4]; Rate 0.0313 kg/ha) was 0.0 and the “ORYSAT herbicidal effect rating” value ([4]; Rate 0.0625 kg/ha) was 0.0. For the same molecule, the “ORYSAT herbicidal effect rating” value ([4]; Rate 0.1250 kg/ha) was 0.0, the “ORYSAT herbicidal effect rating” value ([4]; Rate 0.2500 kg/ha) was 0.0 and the “SAGPY herbicidal effect rating” value (Sagittaria pygmaea, L.; [9]) was 0.0. For the same molecule, the “SAGPY herbicidal effect rating” value (Sagittaria pygmaea, L.; [10]) was 0.0, the “SAGPY herbicidal effect rating” value (Sagittaria pygmaea, L.; [11]) was 0.0 and the “SAGPY herbicidal effect rating” value (Sagittaria pygmaea, L.; [12]) was 0.0.
In the case of `Cc1ccc(O)c(-c2noc3ccc(-n4c(=O)cc(C(F)(F)F)n(C)c4=O)c(Cl)c23)c1` [Example 41, 3-[4-Chloro-3-(6-hydroxy-m-tolyl)-1,2-benzisoxazol-5-yl]-1-methyl-6-(trifluoromethyl)-2,4(1H,3H)-pyrimidinedione], the “herbicidal effect rating, ECHORC” value [1, 13] is reported as 0.0, the “herbicidal effect rating, ECHORC” value [1, 14] is reported as 0.0 and the “herbicidal effect rating, ECHORC” value [1, 15] is reported as 2.0. For the same molecule, the “herbicidal effect rating, ECHORC” value [1, 16] was 6.0, the “herbicidal effect rating, CYPSE” value [2, 13] was 0.0 and the “herbicidal effect rating, CYPSE” value [2, 14] was 0.0. For the same molecule, the “herbicidal effect rating, CYPSE” value [2, 15] was 0.0, the “herbicidal effect rating, CYPSE” value [2, 16] was 0.0 and the “herbicidal effect rating, CYPIR” value (Cyperus iria; [13]) was 0.0. For the same molecule, the “herbicidal effect rating, CYPIR” value (Cyperus iria; [14]) was 0.0, the “herbicidal effect rating, CYPIR” value (Cyperus iria; [15]) was 1.0 and the “herbicidal effect rating, CYPIR” value (Cyperus iria; [16]) was 2.0. For the same molecule, the “herbicidal effect rating, MOOVA” value [3, 13] was 0.0, the “herbicidal effect rating, MOOVA” value [3, 14] was 2.0 and the “herbicidal effect rating, MOOVA” value [3, 15] was 4.0. For the same molecule, the “herbicidal effect rating, MOOVA” value [3, 16] was 9.0, the “herbicidal effect rating, ORYSAT” value ([4]; 0.0313 kg/ha) was 0.0 and the “herbicidal effect rating, ORYSAT” value ([4]; 0.0625 kg/ha) was 0.0. The “herbicidal effect rating, ORYSAT” value ([4]; 0.1250 kg/ha) was 0.0, the “herbicidal effect rating, ORYSAT” value ([4]; 0.2500 kg/ha) was 0.0 and the “herbicidal effect rating, SAGPY” value (Sagittaria pygmaea, L.; [13]) was 0.0. For the same molecule, the “herbicidal effect rating, SAGPY” value (Sagittaria pygmaea, L.; [14]) was 0.0, the “herbicidal effect rating, SAGPY” value (Sagittaria pygmaea, L.; [15]) was 0.0 and the “herbicidal effect rating, SAGPY” value (Sagittaria pygmaea, L.; [16]) was 0.0.
For `CNC(=O)COc1ccc(C)cc1-c1nsc2ccc(-n3c(=O)cc(C(F)(F)F)n(C)c3=O)cc12` [Example 561, Acetamide, 2-{{2-{5-[3,6-dihydro-3-methyl-2,6-dioxo-4-(trifluoromethyl)-1(2H)-pyrimidinyl]-1,2-benzisothiazol-3-yl}-p-tolyl}oxy}-N-methyl-], the “herbicidal effect rating, ECHORC” value [1, 17] was 3.6, the “herbicidal effect rating, ECHORC” value [1, 18] was 4.8 and the “herbicidal effect rating, ECHORC” value [1, 19] was 6.4. The “herbicidal effect rating, ECHORC” value [1, 20] was 9.0, the “herbicidal effect rating, ECHORC” value [1, 21] was 9.0 and the “herbicidal effect rating, CYPSE” value [2, 17] was 0.0. For the same molecule, the “herbicidal effect rating, CYPSE” value [2, 18] was 0.0, the “herbicidal effect rating, CYPSE” value [2, 19] was 0.0 and the “herbicidal effect rating, CYPSE” value [2, 20] was 0.0. For the same molecule, the “herbicidal effect rating, CYPSE” value [2, 21] was 9.0, the “herbicidal effect rating, CYPIR” value (Cyperus iria; [17]) was 3.0 and the “herbicidal effect rating, CYPIR” value (Cyperus iria; [18]) was 6.0. For the same molecule, the “herbicidal effect rating, CYPIR” value (Cyperus iria; [19]) was 8.5, the “herbicidal effect rating, CYPIR” value (Cyperus iria; [20]) was 9.0 and the “herbicidal effect rating, CYPIR” value (Cyperus iria; [21]) was 6.0. The “herbicidal effect rating, MOOVA” value [3, 17] was 9.0, the “herbicidal effect rating, MOOVA” value [3, 18] was 9.0 and the “herbicidal effect rating, MOOVA” value [3, 19] was 9.0. For the same molecule, the “herbicidal effect rating, MOOVA” value [3, 20] was 9.0, the “herbicidal effect rating, MOOVA” value [3, 21] was 9.0 and the “herbicidal effect rating ORYSAT” value ([4]; Rate 0.0320 kg/ha) was 2.5. The “herbicidal effect rating ORYSAT” value ([4]; Rate 0.0620 kg/ha) was 4.0, the “herbicidal effect rating ORYSAT” value ([4]; Rate 0.1250 kg/ha) was 3.5 and the “herbicidal effect rating ORYSAT” value ([4]; Rate 0.2500 kg/ha) was 4.5. For the same molecule, the “herbicidal effect rating ORYSAT” value ([4]; Rate 0.5000 kg/ha) was 2.0, the “herbicidal effect rating, SAGPY” value (Sagittaria pygmaea, L.; [17]) was 0.0 and the “herbicidal effect rating, SAGPY” value (Sagittaria pygmaea, L.; [18]) was 0.0. The “herbicidal effect rating, SAGPY” value (Sagittaria pygmaea, L.; [19]) was 1.0, the “herbicidal effect rating, SAGPY” value (Sagittaria pygmaea, L.; [20]) was 3.0 and the “herbicidal effect rating, SAGPY” value (Sagittaria pygmaea, L.; [21]) was 0.0.
With `Cc1ccc(OCC(=O)C(C)(C)C)c(-c2nsc3ccc(-n4c(=O)cc(C(F)(F)F)n(C)c4=O)cc23)c1` [Example 540, 2,4(1H,3H)-Pyrimidinedione, 3-{3-[6-(3,3-dimethyl-2-oxobutoxy)-m-tolyl]-1,2-benzisothiazol-5-yl}-1-methyl-6-(trifluoromethyl)-] the “herbicidal effect rating, ECHORC” value [1, 17] was 2.3, the “herbicidal effect rating, ECHORC” value [1, 18] was 3.4 and the “herbicidal effect rating, ECHORC” value [1, 19] was 4.7. The “herbicidal effect rating, ECHORC” value [1, 20] was 9.0, the “herbicidal effect rating, ECHORC” value [1, 21] was 9.0 and the “herbicidal effect rating, CYPSE” value [2, 17] was 0.0. The “herbicidal effect rating, CYPSE” value [2, 18] was 0.0, the “herbicidal effect rating, CYPSE” value [2, 19] was 0.0 and the “herbicidal effect rating, CYPSE” value [2, 20] was 0.0. The “herbicidal effect rating, CYPSE” value [2, 21] was 3.0, the “herbicidal effect rating, CYPIR” value (Cyperus iria; [17]) was 6.0 and the “herbicidal effect rating, CYPIR” value (Cyperus iria; [18]) was 8.0. For the same molecule, the “herbicidal effect rating, CYPIR” value (Cyperus iria; [19]) was 9.0, the “herbicidal effect rating, CYPIR” value (Cyperus iria; [20]) was 9.0 and the “herbicidal effect rating, CYPIR” value (Cyperus iria; [21]) was 9.0. The “herbicidal effect rating, MOOVA” value [3, 17] was 8.0, the “herbicidal effect rating, MOOVA” value [3, 18] was 9.0 and the “herbicidal effect rating, MOOVA” value [3, 19] was 9.0. For the same molecule, the “herbicidal effect rating, MOOVA” value [3, 20] was 9.0, the “herbicidal effect rating, MOOVA” value [3, 21] was 9.0 and the “herbicidal effect rating ORYSAT” value ([4]; Rate 0.0320 kg/ha) was 0.0. The “herbicidal effect rating ORYSAT” value ([4]; Rate 0.0620 kg/ha) was 0.0, the “herbicidal effect rating ORYSAT” value ([4]; Rate 0.1250 kg/ha) was 0.0 and the “herbicidal effect rating ORYSAT” value ([4]; Rate 0.2500 kg/ha) was 1.0. For the same molecule, the “herbicidal effect rating ORYSAT” value ([4]; Rate 0.5000 kg/ha) was 3.0, the “herbicidal effect rating, SAGPY” value (Sagittaria pygmaea, L.; [17]) was 0.0 and the “herbicidal effect rating, SAGPY” value (Sagittaria pygmaea, L.; [18]) was 0.0. The “herbicidal effect rating, SAGPY” value (Sagittaria pygmaea, L.; [19]) was 0.0, the “herbicidal effect rating, SAGPY” value (Sagittaria pygmaea, L.; [20]) was 0.0 and the “herbicidal effect rating, SAGPY” value (Sagittaria pygmaea, L.; [21]) was 0.0.
